Here are results for 2 molecules from publication PMC6249675 (Structure (London, England : 1993), 2018).

Assay [1] addresses T1, Rac1 (Homo sapiens, UniProt P63000). In words: strong anion exchange chromatography of co-purified nucleotide. Type of assay: binding. The following applies: co-purified from E. coli.
A further assay concerns the target T2, Rnd3 (Homo sapiens, UniProt P61587).
T2 sequence (P61587 19-200): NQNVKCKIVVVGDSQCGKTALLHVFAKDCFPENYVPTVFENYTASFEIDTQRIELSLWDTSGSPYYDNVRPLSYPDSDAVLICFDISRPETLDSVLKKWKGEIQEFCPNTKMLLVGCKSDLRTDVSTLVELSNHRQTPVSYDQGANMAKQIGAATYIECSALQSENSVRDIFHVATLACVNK
The assay is described as above. The following applies: co-purified from E. coli; not hydrolysed. The assay is classed as binding.

Assay [2] has as its target T1, Rac1. In words: GTP hydrolysis followed by strong anion exchange chromatography. Type of assay: biochemical. The conditions noted are these: 5 mM GTP, 5 mM MgCl2, room temperature, 24 h.

Turning to `Nc1nc2c(ncn2[C@@H]2O[C@H](COP(=O)(O)OP(=O)(O)O)[C@@H](O)[C@H]2O)c(=O)[nH]1` [GDP], at Rac1 [1], the “strong anion exchange chromatography of co-purified nucleotide” value is “wild-type Rac1 which, like other active GTPases, is bound predominantly to GDP”.
Take `Nc1nc2c(ncn2[C@@H]2O[C@H](COP(=O)(O)OP(=O)(O)OP(=O)(O)O)[C@@H](O)[C@H]2O)c(=O)[nH]1` [GTP]: the “strong anion exchange chromatography of co-purified nucleotide” value on Rnd3 was “N-GTPase is similar to the pseudoGTPase Rnd3, which binds only GTP (Fig. 4d)”. Also, the “GTP hydrolysis followed by strong anion exchange chromatography” value on Rac1 [2] is “Rac1 (preloaded with GTP) exhibits complete hydrolysis of GTP to GDP in identical conditions”.
